Experiments:
[1] = target: T1, D-3-phosphoglycerate dehydrogenase (Homo sapiens, UniProt O43175); assay: PHGDH SPR Assay; conditions: pH 7.4
T1 sequence (O43175 whole entry): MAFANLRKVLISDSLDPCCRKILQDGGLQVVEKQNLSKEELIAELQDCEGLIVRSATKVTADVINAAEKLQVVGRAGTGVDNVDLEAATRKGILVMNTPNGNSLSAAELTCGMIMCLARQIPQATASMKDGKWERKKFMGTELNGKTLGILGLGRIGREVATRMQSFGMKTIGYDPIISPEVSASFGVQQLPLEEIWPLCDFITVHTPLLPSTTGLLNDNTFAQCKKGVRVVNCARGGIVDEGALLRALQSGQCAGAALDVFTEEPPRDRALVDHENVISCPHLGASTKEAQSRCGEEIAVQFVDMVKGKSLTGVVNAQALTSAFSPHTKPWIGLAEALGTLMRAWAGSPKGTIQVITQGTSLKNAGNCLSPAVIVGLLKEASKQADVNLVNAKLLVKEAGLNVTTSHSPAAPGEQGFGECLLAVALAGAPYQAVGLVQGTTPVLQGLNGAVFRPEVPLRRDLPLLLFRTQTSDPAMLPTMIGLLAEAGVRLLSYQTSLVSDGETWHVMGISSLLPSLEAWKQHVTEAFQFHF
Description: The binding affinities of compounds towards PHGDH were assayed using the SPR-based Biacore T200 instrument (GE Healthcare). PHGDH was immobilized on a CM5 sensor chip by using standard amine-coupling at 25℃ with running buffer PBS-P (20 mM phosphate buffer, […], 0.05% surfactant P-20, pH 7.4), respectively, as described previously. A reference flow cell was activated and blocked in the absence of PHGDH. […] Regeneration was achieved by extended washing with the running buffer after each sample injection.

[2] = target: T1, D-3-phosphoglycerate dehydrogenase; assay: PHGDH Enzyme Assay; conditions: pH 7.1
Description: (§1) To evaluate the effects of compounds on PHGDH activity, compounds were first pre-incubated with enzyme samples in the assay buffer (25 mM HEPES, pH 7.1, 400 mM KCl, 5 μM phosphopyridoxa (PLP), 0.5 mM α-ketoglutarate, 150 μM NADH, 1 mM DTT) for 10 min at 25℃, then the reaction was started by adding L-phospho-O-serine (Pser). […] Fluorescence signals were recorded for 3 min with a kinetics mode program using on a plate reader (Synergy, Biotek).

[3] = target: T2, D-3-phosphoglycerate dehydrogenase [3-314] (Homo sapiens, UniProt O43175); assay: PHGDH Enzyme Assay; conditions: pH 7.1
T2 construct: 3-314
T2 sequence (O43175 whole entry): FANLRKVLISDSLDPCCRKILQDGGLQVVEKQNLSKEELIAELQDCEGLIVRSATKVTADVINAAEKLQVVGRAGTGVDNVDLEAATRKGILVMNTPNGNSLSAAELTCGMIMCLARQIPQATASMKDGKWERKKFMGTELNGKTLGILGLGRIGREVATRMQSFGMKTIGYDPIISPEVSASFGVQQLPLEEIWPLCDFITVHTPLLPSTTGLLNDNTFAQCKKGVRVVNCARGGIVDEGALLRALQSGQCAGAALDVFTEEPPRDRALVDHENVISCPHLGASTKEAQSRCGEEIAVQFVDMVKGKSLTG
Description: as §1

Row | Compound | Kd ([1]; read-out: Kd) [µM] | IC50 [2] [µM] | IC50 [3] [µM] | Kd [1] [µM]
1 | O=C(O)CSC1=C(SCC(=O)O)C(=O)C(SCC(=O)O)=C(SCC(=O)O)C1=O [PKUMDL-WQ-2203] | 7.22 | 28.1 | – | –
2 | CCNC(=S)N/N=C\c1ccc(-c2ccc(C(=O)O)c(Cl)c2)o1 [PKUMDL-WQ-2201] | 66.9 | – | 35 | –
3 | Cc1c(/N=N/c2cccc(C(=O)O)c2)c(O)[nH]c(=O)c1C#N [PKUMDL-WQ-2202] | 29 | 42 | – | –
4 | O=C1N[C@H]2[C@H](CS[C@H]2CCCCC(=O)OCc2cc([N+](=O)[O-])cc(/C=N/NC(=O)c3ccc(O)cc3O)c2O)N1 [PKUMDL-WQ-2101-Biotin] | – | 49.5 | – | –
5 | O=C(N/N=C/c1cc([N+](=O)[O-])ccc1O)c1ccc(O)cc1O [PKUMDL-WQ-2101] | – | 44.9 | 30.1 | 0.56

From BindingDB's records for doi:10.1016/j.chembiol.2016.11.013 (Peking University, 2017)
